Inhibition and IC50 data for ten compounds are collected here from patent publication US20220144847A1, “HETEROCYCLIC COMPOUND, PHARMACEUTICAL COMPOSITION COMPRISING SAME, PREPARATION METHOD THEREFOR, AND USE THEREOF” (Sichuan Kelun-Biotech Biopharmaceutical Co., Ltd., priority 2019, published 2022).

Like-named read-outs stand apart in the source and are kept apart here.

Holding throughout (format): biochemical
Assay [1] concerns the target VEGFR2 (Homo sapiens, UniProt P35968). In words: VEGFR2 inhibition experiment (HTRF KinEASE-TK kit). The conditions noted are these: read-out: Inhibition rate on VEGFR2; for inhibition at 0.03 µM: 30 nM. The method in brief: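 HTRF KinEASE-TK format: enzyme and compound were preincubated 30 min at room temperature, then substrate and ATP added for 40 min, followed by cryptate antibody/streptavidin-XL665 detection for 45 min. Inhibition was normalised to DMSO and no-enzyme controls; IC50 from a four-parameter fit.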
Background: In TR-FRET formats the signal depends on donor and acceptor labels being close together.

Assay [2] concerns the target RET-V804M (Homo sapiens, UniProt P07949, V804M). Put plainly: RET inhibition experiment (HTRF KinEASE-TK kit), mutant RET-V804M. The following applies: for inhibition at 0.1 µM / inhibition at 0.01 µM: read-out: Inhibition rate on RET-V804M; for inhibition at 0.01 µM: 10 nM (Table 2). The method, boiled down:
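Enzyme was pre-incubated with compound at room temperature for 30 min, then substrate and ATP were added for a 40 min reaction. HTRF signal was read after 45 min with TK antibody-cryptate and streptavidin-XL665. IC50 came from a four-parameter fit of percent inhibition against DMSO and no-enzyme controls.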

Assay [3] concerns the target RET-M918T (Homo sapiens, UniProt P07949, M918T). Put plainly: RET inhibition experiment (HTRF KinEASE-TK kit), mutant RET-M918T. The following applies: for inhibition at 0.1 µM: read-out: Inhibition rate on RET-M918T. How it is done:
(§1) Experimental method: […] After incubation at room temperature for 40 min, TK antibody-cryptate and streptavidin-XL665 were added, and the test was performed after incubation at room temperature for 45 min. With the solvent group (DMSO) as the negative control and the buffer group (without RET enzyme) as the blank control, the relative inhibitory activity percentages (i.e., inhibition rates) of different concentrations of the compounds were computed as per the following formula: […] The relative inhibitory activity percentages of different concentrations of the compounds were plotted with respect to the compound concentrations, and the curve was fitted according to a four-parameter model to compute the IC50 value as per the following formula: y=min+(max-min)/(1+(x/IC50)^(-Hillslope)) where y is the relative inhibitory activity percentage, max is the maximum value of the fitted curve, min is the minimum value of the fitted curve, x is the logarithmic concentration of the compound, and Hillslope is the slope of the curve.

The target of assay [4] is T1, RET-CCDC6 (Homo sapiens, UniProt P07949).
T1 construct: CCDC6 fusion partner (Q16204 for human); the other entry of the earlier key: CCDC6 (Q16204, Coiled-coil domain-containing protein 6)
T1 sequence (P07949 with tags, fused parts or gaps): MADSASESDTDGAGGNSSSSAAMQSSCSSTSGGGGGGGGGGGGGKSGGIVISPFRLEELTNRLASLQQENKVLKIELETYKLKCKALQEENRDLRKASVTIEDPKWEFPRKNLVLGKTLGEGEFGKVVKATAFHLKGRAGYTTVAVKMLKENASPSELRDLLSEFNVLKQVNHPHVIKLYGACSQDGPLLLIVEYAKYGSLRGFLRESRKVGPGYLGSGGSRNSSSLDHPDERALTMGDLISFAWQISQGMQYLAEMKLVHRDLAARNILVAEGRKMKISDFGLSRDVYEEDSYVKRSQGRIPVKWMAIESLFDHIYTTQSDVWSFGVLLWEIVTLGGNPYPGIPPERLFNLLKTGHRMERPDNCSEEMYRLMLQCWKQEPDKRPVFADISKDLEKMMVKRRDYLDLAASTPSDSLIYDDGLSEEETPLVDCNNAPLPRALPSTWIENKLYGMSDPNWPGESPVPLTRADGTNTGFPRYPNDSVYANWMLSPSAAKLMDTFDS
In words: RET inhibition experiment (HTRF KinEASE-TK kit), fusion-type RET enzyme. The conditions noted are these: read-out: The IC50 (nM) for inhibiting RET-CCDC6. As for the experimental part: as §1

The mark [5] stands for this setting: compound concentration 100 nM (Table 1).

Sequence of RET-V804M (P07949 29-1114 V804M): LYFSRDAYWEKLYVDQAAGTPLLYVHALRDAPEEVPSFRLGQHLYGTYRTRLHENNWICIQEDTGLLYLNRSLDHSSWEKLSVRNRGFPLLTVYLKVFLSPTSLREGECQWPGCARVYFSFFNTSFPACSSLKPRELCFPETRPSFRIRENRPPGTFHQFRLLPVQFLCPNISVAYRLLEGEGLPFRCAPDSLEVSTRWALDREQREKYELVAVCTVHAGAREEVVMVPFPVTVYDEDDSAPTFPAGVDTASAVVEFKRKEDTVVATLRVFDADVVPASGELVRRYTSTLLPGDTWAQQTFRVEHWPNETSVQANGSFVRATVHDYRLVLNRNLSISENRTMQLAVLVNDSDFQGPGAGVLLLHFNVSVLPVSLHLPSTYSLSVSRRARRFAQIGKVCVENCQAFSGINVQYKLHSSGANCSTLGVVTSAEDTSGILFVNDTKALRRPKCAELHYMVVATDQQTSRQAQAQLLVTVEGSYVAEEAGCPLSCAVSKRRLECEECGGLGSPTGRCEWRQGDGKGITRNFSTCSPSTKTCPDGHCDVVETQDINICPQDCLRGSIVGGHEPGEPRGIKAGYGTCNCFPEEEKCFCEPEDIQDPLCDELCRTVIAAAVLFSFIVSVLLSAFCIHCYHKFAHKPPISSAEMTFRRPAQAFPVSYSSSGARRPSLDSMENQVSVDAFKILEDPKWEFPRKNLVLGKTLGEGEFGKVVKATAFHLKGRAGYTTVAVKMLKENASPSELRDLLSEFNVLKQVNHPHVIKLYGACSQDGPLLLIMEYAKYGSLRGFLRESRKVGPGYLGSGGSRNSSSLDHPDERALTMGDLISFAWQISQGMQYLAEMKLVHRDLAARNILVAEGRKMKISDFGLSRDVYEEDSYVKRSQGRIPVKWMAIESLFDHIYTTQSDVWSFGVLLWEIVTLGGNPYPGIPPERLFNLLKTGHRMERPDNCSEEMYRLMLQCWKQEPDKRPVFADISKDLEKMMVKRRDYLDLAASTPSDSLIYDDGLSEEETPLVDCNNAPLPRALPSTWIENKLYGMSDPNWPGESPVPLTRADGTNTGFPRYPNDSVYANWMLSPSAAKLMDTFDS
Sequence of RET-M918T (P07949 29-1114 M918T): as the sequence (P07949 29-1114 V804M) above, with M776V, M890T counted along it
Sequence of VEGFR2 (P35968 20-1356, species assumed): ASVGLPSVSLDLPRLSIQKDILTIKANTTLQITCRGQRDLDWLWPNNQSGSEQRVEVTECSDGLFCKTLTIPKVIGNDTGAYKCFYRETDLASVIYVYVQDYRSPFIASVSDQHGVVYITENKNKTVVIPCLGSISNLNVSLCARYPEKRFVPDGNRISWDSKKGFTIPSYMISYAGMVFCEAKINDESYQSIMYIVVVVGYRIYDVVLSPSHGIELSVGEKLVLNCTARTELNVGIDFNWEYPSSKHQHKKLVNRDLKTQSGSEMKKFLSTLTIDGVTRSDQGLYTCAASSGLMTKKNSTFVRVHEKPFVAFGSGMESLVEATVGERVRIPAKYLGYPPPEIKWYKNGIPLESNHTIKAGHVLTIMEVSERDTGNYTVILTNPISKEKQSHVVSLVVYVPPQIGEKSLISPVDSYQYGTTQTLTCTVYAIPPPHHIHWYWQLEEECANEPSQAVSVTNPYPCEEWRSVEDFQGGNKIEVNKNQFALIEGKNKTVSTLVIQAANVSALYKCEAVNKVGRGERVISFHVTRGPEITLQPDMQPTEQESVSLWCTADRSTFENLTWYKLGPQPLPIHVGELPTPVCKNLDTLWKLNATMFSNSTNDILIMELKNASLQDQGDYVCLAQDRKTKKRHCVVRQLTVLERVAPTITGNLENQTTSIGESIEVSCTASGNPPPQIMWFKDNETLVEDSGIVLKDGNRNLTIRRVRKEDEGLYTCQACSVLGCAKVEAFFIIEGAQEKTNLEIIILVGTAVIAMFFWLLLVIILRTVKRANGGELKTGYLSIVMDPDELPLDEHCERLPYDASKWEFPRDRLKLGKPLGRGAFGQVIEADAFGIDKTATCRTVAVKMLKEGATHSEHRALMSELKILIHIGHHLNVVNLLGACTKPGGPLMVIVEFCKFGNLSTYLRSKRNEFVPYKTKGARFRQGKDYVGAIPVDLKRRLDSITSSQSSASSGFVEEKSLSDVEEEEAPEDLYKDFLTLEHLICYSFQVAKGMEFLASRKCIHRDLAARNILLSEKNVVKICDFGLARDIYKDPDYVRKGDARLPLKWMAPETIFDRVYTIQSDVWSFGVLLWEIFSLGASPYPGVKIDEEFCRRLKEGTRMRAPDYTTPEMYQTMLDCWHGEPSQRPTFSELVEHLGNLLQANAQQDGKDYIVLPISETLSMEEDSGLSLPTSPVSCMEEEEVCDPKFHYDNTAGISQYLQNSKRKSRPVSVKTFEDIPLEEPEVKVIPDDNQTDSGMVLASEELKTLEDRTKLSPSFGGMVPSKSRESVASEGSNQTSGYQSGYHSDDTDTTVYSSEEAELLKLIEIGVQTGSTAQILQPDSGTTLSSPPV

By inhibition is commonly meant how much of the control response was suppressed. As for `Cc1cc(Nc2cc(C)[nH]n2)nc(-c2ccc(N3CC4CC(C3)N4Cc3ccccc3)nc2)n1` [Compound 1, 2-(6-(6-benzyl-3,6-diazabicyclo[3.1.1]heptan-3-yl)pyridin-3-yl)-6-methyl-N-(5-methyl-1H-pyrazol-3-yl)pyrimidin-4-amine], the inhibition at 0.1 µM amounted to 38% in assay [1], 86% in assay [2] and 33% in assay [3].

For `COc1ccc(CN2C3CC2CN(c2ccc(-c4nc(C)cc(Nc5cc(C)[nH]n5)n4)cn2)C3)cc1` [Compound 2, 2-(6-(6-(4-methoxybenzyl)-3,6-diazabicyclo[3.1.1]heptan-3-yl)pyridin-3-yl)-6-methyl-N-(5-methyl-1H-pyrazol-3-yl)pyrimidin-4-amine], the inhibition at 0.1 µM in assay [1] was determined as 29%; in assay [2], 93%; in assay [3] it was 51%.

As to `Cc1cc(Nc2cc(C)[nH]n2)nc(-c2ccc(N3CC4CC(C3)N4Cc3ccc(Cl)nc3)nc2)n1` [Compound 3, 2-(6-(6-((6-chloropyridin-3-yl)methyl)-3,6-diazabicyclo[3.1.1]heptan-3-yl)pyridin-3-yl)-6-methyl-N-(5-methyl-1H-pyrazol-3-yl)pyrimidin-4-amine], the inhibition at 0.1 µM in assay [1] (100 nM) is 14%; in assay [2] (setting [5]), 86%; in assay [3] (setting [5]), 34%.

`COc1ccc(CN2C3CC2CN(c2ccc(-c4nc(C)cc(Nc5cc(C)[nH]n5)n4)cn2)C3)cn1` [Compound 4, 2-(6-(6-((6-methoxypyridin-3-yl)methyl)-3,6-diazabicyclo[3.1.1]heptan-3-yl)pyridin-3-yl)-6-methyl-N-(5-methyl-1H-pyrazol-3-yl)pyrimidin-4-amine]: the inhibition at 1 µM in assay [1] (1000 nM) amounted to 52%. Further, the inhibition at 0.1 µM in assay [3] (setting [5]) worked out at 69%.

A word on the IC50: it is the concentration needed to halve the response being measured. In the case of `Cc1cc(Nc2cc(C)[nH]n2)nc(-c2ccc(N3CC4CC(C3)N4Cc3ccc(Cl)cn3)nc2)n1` [Compound 69, 2-(6-(6-((5-chloropyridin-2-yl)methyl)-3,6-diazabicyclo[3.1.1]heptan-3-yl)pyridin-3-yl)-6-methyl-N-(5-methyl-1H-pyrazol-3-yl)pyrimidin-4-amine], the IC50 is 11 ± 9.65 nM in assay [4] and 8.6 ± 1.46 nM in assay [3] (read-out: The IC50 (nM) for inhibiting the enzyme RET-M918T). Also, in assay [1] (100 nM), the inhibition at 0.1 µM stood at 2%. Also, the inhibition at 0.01 µM in assay [2] is 56%.

With `Cc1cc(Nc2cc(C)[nH]n2)nc(-c2ccc(N3CC4CC(C3)N4Cc3ccc(-c4ccn[nH]4)nc3)nc2)n1` [Compound 132, 2-(6-(6-((6-(1H-pyrazol-5-yl)pyridin-3-yl)methyl)-3,6-diazabicyclo[3.1.1]heptan-3-yl)pyridin-3-yl)-6-methyl-N-(5-methyl-1H-pyrazol-3-yl)pyrimidin-4-amine], the inhibition at 0.03 µM in assay [1] was found to be 31%. Besides, in assay [2], the inhibition at 0.01 µM was determined as 84%.

Turning to `Cc1cc(Nc2cc(C)[nH]n2)nc(-c2ccc(N3CC4CC(C3)N4Cc3ccc(-c4ccc(C)o4)nc3)nc2)n1` [Compound 133, 6-methyl-N-(5-methyl-1H-pyrazol-3-yl)-2-(6-(6-((6-(5-methylfuran-2-yl)pyridin-3-yl)methyl)-3,6-diazabicyclo[3.1.1]heptan-3-yl)pyridin-3-yl)pyrimidin-4-amine], the inhibition at 0.05 µM in assay [1] (50 nM) was found to be 28%. The inhibition at 0.01 µM in assay [2] turned out to be 82%.

Regarding `Cc1cc(Nc2cc(C)[nH]n2)nc(-c2ccc(N3CC4CC(C3)N4Cc3ccc(-c4cnn(C(C)C)c4)nc3)nc2)n1` [Compound 135, 2-(6-(6-((6-(1-isopropyl-1H-pyrazol-4-yl)pyridin-3-yl)methyl)-3,6-diazabicyclo[3.1.1]heptan-3-yl)pyridin-3-yl)-6-methyl-N-(5-methyl-1H-pyrazol-3-yl)pyrimidin-4-amine], the inhibition at 0.1 µM in assay [1] (100 nM) is 34%. Besides, the inhibition at 0.01 µM in assay [2] is 65%.

Regarding `Cc1cc(Nc2cc(C)[nH]n2)nc(-c2ccc(N3CC4CC(C3)N4Cc3ccc(-n4nccc4C(C)(C)O)nc3)nc2)n1` [Compound 136, 2-(1-(5-((3-(5-(4-methyl-6-((5-methyl-1H-pyrazol-3-yl)-amino)pyrimidin-2-yl)pyridin-2-yl)-3,6-diazabicyclo[3.1.1]heptan-6-yl)methyl)pyridin-2-yl)-1H-pyrazol-5-yl)propan-2-ol], in assay [1], the inhibition at 0.03 µM was found to be 18%. Besides, the IC50 in assay [2] (read-out: The IC50 (nM) for inhibiting V804M) was 2.35 ± 0.13 nM.

Take `Cc1cc(Nc2cc(C)[nH]n2)nc(-c2ccc(N3CC4CC(C3)N4Cc3ccc(-n4ccc(CO)n4)nc3)nc2)n1` [Compound 137, (1-(5-((3-(5-(4-methyl-6-((5-methyl-1H-pyrazol-3-yl)-amino)pyrimidin-2-yl)pyridin-2-yl)-3,6-diazabicyclo[3.1.1]heptan-6-yl)methyl)pyridin-2-yl)-1H-pyrazol-3-yl)methanol]: in assay [1], the inhibition at 0.03 µM amounted to 26%. The inhibition at 0.01 µM in assay [2] is 93%.
